Where “and” joins values, the source holds several entries; their conditions need not be identical. Identical values can stand only once. Entries after “also recorded” stand apart in the source; their conditions may differ. Like-named read-outs stand apart in the source and are kept apart here.
Columns and labels:
[1] = test system: L. plantarum; experiment: Inhibitor screen in bacteria, L. plantarum culture; type: cell-based, Lactobacillus plantarum WCFS1; conditions: FIG. 2c, L. plantarum culture; 100 μM inhibitor, 100 μM bile acid pool, 21 h; replicates 1-3
[2] = test system: BSH activity in conventional mouse feces; experiment: Screen of inhibitors in conventional mouse feces; type: biochemical; conditions: 20 μM inhibitor, 30 min, then GCDCA-d4 100 μM, 18 hours
Description: Screen of Inhibitors in Conventional Mouse Feces. […] The tubes were then frozen in dry ice for 5 mins and upon thawing were diluted with an equal volume of methanol. […] The supernatant was removed into a clean eppendorf tube and centrifuged again. […] The concentration of product detected from these assays was reported directly.

[3] = test system: C57BL/6 mice; type: in vivo, mouse; conditions: single gavage 10 mg/kg; for BSH activity in feces: 1 day and 1.5 days post-gavage
Description: Mice were split into two groups of four mice each and were gavaged with either 200 μL of corn oil containing 5% DMSO (vehicle group) or with 200 μL of corn oil containing 7 at a concentration of 1.25 mg/mL (experimental group). For the fecal pellet collection, each mouse was transferred to a temporary cardboard cage for a few minutes until it defecated.
Quantification of Bile Acids in Tissues and Plasma.
Determination of Microbial Biomass by Plating. Frozen fecal pellets were used to determine colony forming units (CFU/g). Feces were suspended in PBS buffer in an anaerobic chamber. Serial dilutions were plated on CHG agar plates (see “Bacterial Culturing”) and incubated at 37° C.
Isolation of Fecal Bacterial Microbiota and 16S rRNA Gene Sequencing Analysis. Mouse fecal microbiota DNA was isolated by using ZymoBIOMICS 96 DNA Kit (ZymoBIOMICS™) according to the manufacturer's instructions. […]
Gel electrophoresis was used to check the success of PCR amplification. The concentration of the PCR product was measured by the Quan-IT dsDNA high sensitivity assay. ˜120 ng of DNA of each PCR product was pooled together to generate an aggregated library for downstream processing. PCR DNA amplicons between 300-500 bp were selected from the aggregated library on a targeted size selection platform (pippin prep 1.5% agarose cassette from Sage Sciences) according to the manufacturer's instructions. The size of DNA amplicons was characterized on an Agilent Technologies 2100 bioanalyzer trace. DNA concentration of the aggregated library was measured by the Quant-IT dsDNA high sensitivity assay. […] 600 ul of the denatured and diluted library with 20% phiX spike-in (120 ul, 7.5 pM of phiX) was loaded onto the MiSeq V2 reagent cartridge (Illumina) and was sequenced with paired-end 250 bp reads using the custom primers described above. […] The resulting FASTQ sequences were then quality-filtered and analyzed by following QIIME_mothur_DADA2.^56-59 Operational Taxonomic Units (OTUs) were picked with 97% sequence similarity. […]

[4] = test system: B. theta cultures; experiment: BSH inhibition in growing B. theta cultures, single substrate (GUDCA or TUDCA); type: cell-based, Bacteroides thetaiotaomicron; conditions: 10 μM inhibitor, 100 μM GUDCA
[5] = target: T1, B. longum BSH (Bifidobacterium longum, UniProt Q9KK62); experiment: Inhibitor screen using rBSH, B. longum BSH (UPLC-MS % deconjugation); type: biochemical, Bifidobacterium longum SBT2928; design: His6 (C); made in house; host or cells: Escherichia coli (as for the B. theta enzyme); conditions: 100 μM inhibitor; 2 h, 5 h and 21 h timepoints
T1 sequence (Q9KK62 1-317): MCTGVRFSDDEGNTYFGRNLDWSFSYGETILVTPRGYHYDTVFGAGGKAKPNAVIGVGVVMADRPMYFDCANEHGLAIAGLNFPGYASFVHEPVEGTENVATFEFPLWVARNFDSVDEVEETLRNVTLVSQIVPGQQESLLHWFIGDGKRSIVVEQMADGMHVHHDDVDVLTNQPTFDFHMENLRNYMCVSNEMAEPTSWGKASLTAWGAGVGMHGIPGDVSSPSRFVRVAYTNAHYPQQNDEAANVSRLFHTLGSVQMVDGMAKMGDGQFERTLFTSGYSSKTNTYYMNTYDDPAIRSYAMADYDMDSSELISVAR
Description: B. longum rBSH. Recombinant BSH from B. longum SBT2928 was expressed and purified as above, except 0.25 mM IPTG was used for protein expression and 1 mM TCEP for protein purification.
Inhibitor Screen Using rBSHs.

SMILES: C[C@H](CCC(=O)CF)[C@H]1CC[C@H]2[C@@H]3[C@H](O)C[C@@H]4C[C@H](O)CC[C@]4(C)[C@H]3CC[C@]12C [Compound 7]
- % deconjugation of TCA [1]: 0.77% and 0.93% and 1.02%
- % deconjugation of TDCA [1]: 3.22% and 0.62% and 0.64%
- % deconjugation of TUDCA [1]: 1.46% and 0.97% and 1.32%
- % deconjugation of TβMCA [1]: 0.15% and 0.49% and 0.62%
- BSH activity in resuspended conventional mouse feces (in words) [2]: completely inhibited BSH activity in feces
- BSH activity in resuspended conventional mouse feces (in words) ([2]; listed as compound 7): effectively inhibited BSH activity; also recorded: completely inhibited the BSH activity in feces; also recorded: almost completely inhibited BSH activity
- BSH activity in feces ([3]; 10 mg/kg): significant decrease in BSH activity in feces
- BSH activity in feces ([3]; listed as compound 7, 10 mg/kg): significantly lower
- fecal deoxycholic acid (DCA) ([3]; 1 day post-gavage): a decrease in the deconjugated secondary bile acid deoxycholic acid (DCA) was observed
- deconjugation of GUDCA in growing B. theta cultures (in words) [4]: nearly complete inhibition of deconjugation
- inhibition of B. longum BSH (in words) [5]: most potent inhibitor; also recorded: most active inhibitor

From patent publication US12577273B2, “Small molecule modulators of gut bacterial bile acid metabolism” (priority 2019, dated 2026)
